{"source": "patent US20210008048A1", "about": "“COMPOSITIONS AND METHODS FOR CANCER TREATMENT” (Dana-Farber Cancer Institute, Inc., priority 2018, published 2021)", "key": {"TLR7 [1]": {"molecular_target": "T1, TLR7 (Homo sapiens, UniProt Q9NYK1)", "T1 construct": "expressed in transfected cells; host or cells: HEK293", "T1 sequence (Q9NYK1 27-1049)": "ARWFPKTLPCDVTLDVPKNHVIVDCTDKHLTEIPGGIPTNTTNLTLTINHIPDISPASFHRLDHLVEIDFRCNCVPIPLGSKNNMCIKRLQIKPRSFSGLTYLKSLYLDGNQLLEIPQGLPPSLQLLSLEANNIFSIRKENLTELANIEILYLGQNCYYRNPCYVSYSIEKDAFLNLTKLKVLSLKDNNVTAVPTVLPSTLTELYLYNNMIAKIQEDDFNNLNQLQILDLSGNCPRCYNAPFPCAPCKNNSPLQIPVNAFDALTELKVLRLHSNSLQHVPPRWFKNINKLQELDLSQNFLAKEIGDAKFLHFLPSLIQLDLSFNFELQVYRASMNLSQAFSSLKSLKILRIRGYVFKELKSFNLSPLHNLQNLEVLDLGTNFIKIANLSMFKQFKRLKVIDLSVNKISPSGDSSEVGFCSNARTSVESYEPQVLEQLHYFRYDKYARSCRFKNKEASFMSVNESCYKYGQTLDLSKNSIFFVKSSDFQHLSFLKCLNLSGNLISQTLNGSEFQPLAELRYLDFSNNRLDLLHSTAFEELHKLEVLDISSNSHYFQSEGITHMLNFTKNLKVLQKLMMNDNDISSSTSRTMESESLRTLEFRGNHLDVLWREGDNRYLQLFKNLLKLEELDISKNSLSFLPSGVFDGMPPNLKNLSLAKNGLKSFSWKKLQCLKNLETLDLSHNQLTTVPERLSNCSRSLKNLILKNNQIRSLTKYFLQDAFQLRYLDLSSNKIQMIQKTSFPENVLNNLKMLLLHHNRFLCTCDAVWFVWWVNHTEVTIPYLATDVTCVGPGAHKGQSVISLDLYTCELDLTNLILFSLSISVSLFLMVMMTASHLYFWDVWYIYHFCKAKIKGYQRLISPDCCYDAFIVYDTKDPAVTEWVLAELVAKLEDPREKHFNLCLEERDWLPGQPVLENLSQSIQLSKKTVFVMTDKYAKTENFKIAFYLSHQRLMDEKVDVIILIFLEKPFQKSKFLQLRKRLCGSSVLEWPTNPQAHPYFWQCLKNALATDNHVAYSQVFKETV", "settings": "concentrations as low as; cited from earlier work"}, "[2]": {"test_system": "4T1-Luc2 breast cancer cells", "experiment": "Survival after resection of orthotopic 4T1-Luc2 tumors with a loaded hydrogel implanted at the resection site", "format": "in vivo, female BALB/cJ mice", "settings": "crosslinked hyaluronic acid hydrogel loaded with the agent placed in tumor resection site on day 10 post-tumor inoculation; extended local release; versus empty hydrogel", "procedure": "The hydrogels for FIG. 1 were prepared according to the methods described for hydrogel 1 in Table 1. 120 μL of a hyaluronic acid solution (2.0% w/v GLYCOSIL) was pipetted into a mold. One mg of a p38 MAPK inhibitor (e.g., losmapimod (Selleckchem)) was dissolved in 10 μL DMSO, and this solution was added to the hyaluronic acid solution in the mold. Following mixing to create a homogeneous distribution of the payload, 30 μL of a PEG-diacrylate crosslinker solution (12.5% w/v EXTRALINK) was pipetted into the mold. The crosslinked hydrogel solidified in the mold over the course of a few minutes. Female BALB/cJ mice were inoculated orthotopically with 4T1-Luc2 breast cancer cells in their fourth mammary fat pad. On day 10 post-tumor inoculation, tumors (˜100 mm^3) were resected, and a hydrogel (e.g., a crosslinked hyaluronic acid hydrogel) loaded with a p38 MAPK inhibitor (e.g., losmapimod) was placed in the tumor resection site. Empty hydrogel was used as a negative control.\nThe hydrogels for FIG. 2 were prepared according to the methods described for hydrogel 1 in Table 1. 120 μL of a hyaluronic acid solution (2.0% w/v GLYCOSIL) was pipetted into a mold. Five hundred μg (40 μL) of an anti-IL-1β antibody (e.g., clone B122 (BioXCell)) was added to the hyaluronic acid solution in the mold. […]"}, "[3]": {"settings": "cited from earlier work"}, "TLR7 [4]": {"molecular_target": "T1, TLR7", "settings": "TLR7-transfected HEK293 cells, cited from earlier work"}, "TLR8 [5]": {"molecular_target": "T2, TLR8 (Homo sapiens, UniProt Q9NR97)", "T2 construct": "expressed in transfected cells; host or cells: HEK293", "T2 sequence (Q9NR97 27-1041)": "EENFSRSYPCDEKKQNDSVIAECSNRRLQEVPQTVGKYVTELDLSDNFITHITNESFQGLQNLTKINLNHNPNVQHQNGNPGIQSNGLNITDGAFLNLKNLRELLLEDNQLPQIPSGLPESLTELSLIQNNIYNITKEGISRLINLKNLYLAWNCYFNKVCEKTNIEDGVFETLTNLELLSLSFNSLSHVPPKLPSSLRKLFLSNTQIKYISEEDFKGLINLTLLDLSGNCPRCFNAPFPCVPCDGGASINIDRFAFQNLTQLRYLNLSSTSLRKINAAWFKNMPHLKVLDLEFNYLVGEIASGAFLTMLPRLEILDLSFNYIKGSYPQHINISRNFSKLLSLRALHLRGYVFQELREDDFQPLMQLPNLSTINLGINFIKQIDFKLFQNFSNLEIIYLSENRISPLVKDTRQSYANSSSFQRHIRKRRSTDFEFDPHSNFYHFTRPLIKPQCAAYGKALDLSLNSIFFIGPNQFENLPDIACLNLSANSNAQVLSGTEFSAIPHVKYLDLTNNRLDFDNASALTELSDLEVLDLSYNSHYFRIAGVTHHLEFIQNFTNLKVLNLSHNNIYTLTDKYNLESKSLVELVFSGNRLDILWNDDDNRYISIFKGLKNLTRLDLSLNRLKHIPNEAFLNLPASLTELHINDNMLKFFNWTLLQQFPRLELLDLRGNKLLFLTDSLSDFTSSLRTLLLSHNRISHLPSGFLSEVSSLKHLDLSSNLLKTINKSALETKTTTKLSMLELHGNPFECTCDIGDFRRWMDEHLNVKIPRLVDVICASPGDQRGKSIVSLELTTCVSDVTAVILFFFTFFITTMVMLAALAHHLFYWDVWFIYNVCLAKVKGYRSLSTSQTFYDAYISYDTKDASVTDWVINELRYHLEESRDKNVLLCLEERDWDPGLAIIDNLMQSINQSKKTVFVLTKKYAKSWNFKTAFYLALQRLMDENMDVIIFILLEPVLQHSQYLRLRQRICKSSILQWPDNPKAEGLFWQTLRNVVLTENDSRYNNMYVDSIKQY", "settings": "even at high concentrations (>10 μg/ml); cited from earlier work"}, "TLR8 [6]": {"molecular_target": "T2, TLR8", "settings": "TLR8-transfected HEK293 cells, cited from earlier work"}}, "note": "Values joined by “and” are separate entries in the source; they are usually repeats but may differ in a detail not shown here. Identical values can stand only once."}
{"smiles": "CCCCNc1nc(N)c2nc(O)n(Cc3ccc(C(=O)NCC(=O)NCCCNCCCCNCCCN)cc3)c2n1", "note": "[CL307, N1-glycinyl[4-((6-amino-2-(butylamino)-8-hydroxy-9H-purin-9-yl)methyl)benzoyl] spermine]", "values": [{"measurement": "concentration inducing robust NF-κB activation", "setting": "TLR7 [1]", "value": "20 nM and 10 ng/ml"}]}
{"smiles": "Cc1c(F)cc(C(=O)NC2CC2)cc1-c1ccc(C(=O)NCC(C)(C)C)cn1", "note": "[losmapimod]", "values": [{"measurement": "survival (Kaplan-Meier)", "setting": "[2]", "value": "Prolonged survival benefit"}]}
{"smiles": "CCOCc1nc2c(N)nc3ccccc3c2[nH]1", "note": "[CL097]", "values": [{"measurement": "water solubility", "setting": "[3]", "value": "≥ 20", "unit": "mg/mL"}]}
{"smiles": "CCCCNc1nc(N)c2nc(O)n(Cc3ccc(C(=O)NCC(=O)O)cc3)c2n1", "note": "[CL264]", "values": [{"measurement": "concentration inducing NF-κB activation", "setting": "TLR7 [4]", "value": 0.1, "unit": "µM"}, {"measurement": "concentration triggering NF-κB activation, times less than imiquimod", "setting": "TLR7 [4]; relative to imiquimod", "value": "5-10 times"}, {"measurement": "TLR8 stimulation", "setting": "TLR8 [5]", "value": "does not stimulate TLR8"}]}
{"smiles": "CCOC(=O)C1=Cc2ccc(-c3cccc(C#N)c3)cc2N=C(N)C1", "note": "[TL8-506]", "values": [{"measurement": "potency in inducing NF-κB activation relative to CL075", "setting": "TLR8 [6]; more potent than CL075", "value": "~25", "unit": "×"}, {"measurement": "potency in inducing NF-κB activation relative to R848", "setting": "TLR8 [6]; more potent than R848", "value": "~50", "unit": "×"}]}
